Patent US20130158084A1, “Pharmaceutical Composition Comprising Losartin For Treating or Preventing Statin BasedGrug-Induced Muscle Toxicity” (HANALL BIOPHARMA CO., LTD., priority 2011, published 2013)
Like-named read-outs stand apart in the source and are kept apart here.

Assays:
[1] = after oral administration; cited from earlier work
[2] = test system: extensor digitorum longus muscle; details: after three weeks
Method: In addition, a 0.5% MC solution or physiological saline was orally administered to a control group.
Then, the concentration of a muscle toxicity-associated enzyme, such as creatine kinase (CK) and lactate dehydrogenase (LDH) in blood was measured and a histological analysis was performed.
The rats were anesthetized with ether after three weeks of starting the administration for each experimental group; an extensor digitorum longus muscle was removed; fixed in paraffin; and then made into 5 μm coronal sections. The paraffin was removed with xylene, hydrophilicized with alcohol, and then stained with hematoxylin and eosin to observe the tissue through an optical microscope (Olympus Optical, Co., Japan).

[3] = Frequency of muscular side effects according to dosage (Zocor Tablet Label); assay type: in vivo; details: dosage of 80 mg compared to 20 mg
Source text: In addition, it is reported that the side effects are increased when the concentration of the statin-based drug in blood is increased in the most cases. […] 16, 2011].

CCCCc1nc(Cl)c(CO)n1Cc1ccc(-c2ccccc2-c2nn[nH]n2)cc1 [Losartan, 2-butyl-4 chloro-1-[2-(1H-tetrazol-5-yl)biphenyl-4-ylphenyl]-1H-imidazol-5-methanol]
Time to maximum concentration in the blood (losartan molecules) [1]: within one hour

CC(C)c1c(C(=O)Nc2ccccc2)c(-c2ccccc2)c(-c2ccc(F)cc2)n1CC[C@@H](O)C[C@@H](O)CC(=O)O [Atorvastatin, atorvastatin]
Degree of Muscle Tissue Damage, Scores (0: Normal, +1: internal nuclei, +2: Myositis, +3: internal nuclei + myositis) ([2]; 40 mg/kg atorvastatin alone): 1.0 ± 0.0
Degree of Muscle Tissue Damage, Scores (0: Normal, +1: internal nuclei, +2: Myositis, +3: internal nuclei + myositis) ([2]; 80 mg/kg atorvastatin alone): 1.8 ± 0.2

CCC(C)(C)C(=O)O[C@H]1C[C@@H](C)C=C2C=C[C@H](C)[C@H](CC[C@@H]3C[C@@H](O)CC(=O)O3)[C@H]21 [simvastatin]
Increase in frequency of muscular side effects, 80 mg compared to 20 mg [3]: at least 20 times
